Structures can show the parent of a compound that is named as a salt.
tested on: Mycobacterium tuberculosis H37Rv; assay: Mycobacterium tuberculosis H37Rv Inhibition Assay; assay type: cell-based; details: ATCC 25618 / H37Rv, H37Rv strain (ATCC25618), Middlebrook 7H9+ADC, resazurin fluorescence, read-out: MIC value

Structure (SMILES)	MIC [µg/mL]
Cl.O=c1cnc2ccc(=O)n3c2n1CC[C@H]3CN1CCC(NCc2ccc3c(c2)OCCO3)CC1 [Example 17B, (6S)-6-({4-[(2,3-Dihydro-1,4-benzodioxin-6-ylmethyl)amino]-1-piperidinyl}methyl)-5,6-dihydro-3H,4H,7H-1,3a,6a-triazaphenalene-3,7-dione hydrochloride]	< 4

same assay, conditions: ATCC 25618 / H37Rv, read-out: MIC value

Structure (SMILES)	MIC [µg/mL]
O=c1cnc2ccc(=O)n3c2n1CC[C@H]3CN1CCC(NCc2cc3c(cc2F)OCCO3)CC1 [Example 16, (6S)-6-[(4-{[(7-Fluoro-2,3-dihydro-1,4-benzodioxin-6-yl)methyl]amino}-1-piperidinyl)methyl]-5,6-dihydro-3H,4H,7H-1,3a,6a-triazaphenalene-3,7-dione dihydrochloride]	> 4
O=c1cnc2ccc(=O)n3c2n1CCC3CN1CCC(NCc2cc3c(cn2)OCS3)CC1 (stereo not drawn) [Example 2, 6-({4-[([1,3]Oxathiolo[5,4-c]pyridin-6-ylmethyl)amino]-1-piperidinyl}methyl)-5,6-dihydro-3H,4H,7H-1,3a,6a-triazaphenalene-3,7-dione dihydrochloride]	> 4
O=c1ccc2ncc(=O)n3c2n1CCC3CN1CCC(NCc2cc3c(cn2)OCS3)CC1 (stereo not drawn) [Example 8, 4-({4-[([1,3]Oxathiolo[5,4-c]pyridin-6-ylmethyl)amino]-1-piperidinyl}methyl)-5,6-dihydro-3H,4H,7H-1,3a,6a-triazaphenalene-3,7-dione dihydrochloride]	> 4
O=c1ccc2ccc(=O)n3c2n1CCC3CN1CCC(NCc2cc3c(cn2)OCS3)CC1 (stereo not drawn) [Example 11, 5-({4-[([1,3]Oxathiolo[5,4-c]pyridin-6-ylmethyl)amino]-1-piperidinyl}methyl)-6,7-dihydro-3H,5H,9H-pyrimido[1,2,3-ij]-1,8-naphthyridine-3,9-dione dihydrochloride]	< 4
N#Cc1cc(CNC2CCN(C[C@@H]3CCn4c(=O)cnc5ccc(=O)n3c54)CC2)cc2c1OCCO2 [Example 15, 7-{[(1-{[(6S)-3,7-Dioxo-5,6-dihydro-3H,4H,7H-1,3a,6a-triazaphenalen-6-yl]methyl}-4-piperidinyl)amino]methyl}-2,3-dihydro-1,4-benzodioxin-5-carbonitrile dihydrochloride]	< 4
O=C1CSc2ccc(CNC3CCN(CC4CCn5c(=O)cnc6ccc(=O)n4c65)CC3)nc2N1 (stereo not drawn) [Example 4, 6-[(4-{[(3-oxo-3,4-dihydro-2H-pyrido[3,2-b][1,4]thiazin-6-yl)methyl]amino}-1-piperidinyl)methyl]-5,6-dihydro-3H,4H,7H-1,3a,6a-triazaphenalene-3,7-dione dihydrochloride]	< 400
O=c1cnc2ccc(=O)n3c2n1CCC3CN1CCC(NCc2cc3c(cn2)OCCO3)CC1 (stereo not drawn) [Example 1, 6-([4-[(2,3-Dihydro[1,4]dioxino[2,3-c]pyridin-7-ylmethyl)amino]-1-piperidinyl]methyl)-5,6-dihydro-3H,4H,7H-1,3a,6a-triazaphenalene-3,7-dione dihydrochloride]	> 4
O=c1ccc2ncc(=O)n3c2n1CC[C@H]3CN1CCC(NCc2cc3c(cn2)OCCS3)CC1 [Example 9, (4S)-4-({4-[(2,3-Dihydro[1,4]oxathiino[2,3-c]pyridin-7-ylmethyl)amino]-1-piperidinyl}methyl)-5,6-dihydro-3H,4H,7H-1,3a,6a-triazaphenalene-3,7-dione dihydrochloride]	> 4
